Assay results: PMC11249646, “Small-Molecule Disruptors of the Interaction between Calcium- and Integrin-Binding Protein 1 and Integrin αIIbβ3 as Novel Antiplatelet Agents” (ACS Pharmacology & Translational Science, 2024)
In brackets after ≈: the same amount, converted by molar mass. Where two headings read alike, the source gives them in different places.

Legend:
[1] = target: T1, CIB1 and αIIb interaction (CIB1-GST : F-αIIb peptide) (Homo sapiens, UniProt Q99828); assay: FP assay, 1536-well qHTS format (primary and confirmatory screen); format: binding; settings: for CONFIRMATORY SCREEN Confirm?: YES/NO call; for CONFIRMATORY SCREEN Curve Class: qHTS curve class
T1 construct: made in house; host or cells: BL-21 plus RIL cells (E. coli)
T1 sequence (Q99828 1-191): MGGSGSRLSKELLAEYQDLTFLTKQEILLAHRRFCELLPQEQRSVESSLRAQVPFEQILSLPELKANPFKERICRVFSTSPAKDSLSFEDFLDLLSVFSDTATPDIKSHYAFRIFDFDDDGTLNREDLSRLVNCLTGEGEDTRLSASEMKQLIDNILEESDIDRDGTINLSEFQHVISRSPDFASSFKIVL

[2] = target: T2, GST-CIB1 : F-scrambled peptide (Homo sapiens, UniProt Q99828); assay: FP scrambled-peptide counter screen, 1536-well format; format: binding; settings: scrambled-peptide counterscreen; for COUNTERSCREEN Confirm?: YES/NO call; for COUNTERSCREEN Curve Class: qHTS curve class
T2 construct: made in house; host or cells: BL-21 plus RIL cells (E. coli)
T2 sequence (Q99828 1-191): T1 sequence (Q99828 1-191)

washed human platelets = assay: Human platelet aggregation assay (thrombin-induced); format: cell-based
Text: A classical challenge in target-based drug discovery is moving from biochemical to cellular assay and the essential step of determining if the compounds of interest can perform in a cellular context. After characterization of the compounds in a series of biochemical assay formats, our next step was to assess their activity in a cellular environment. Our previous studies have shown that the interaction of the cytoplasmic domain of integrin αIIbβ3, a key regulator of platelet aggregation, with CIB1, is involved in downstream signaling in platelet activation and aggregation. We sought to determine whether our candidate compounds were inhibiting this interaction by evaluating them for platelet function in a human platelet aggregation assay. We prepared platelet-rich plasma (PRP) and washed the platelets as previously described[44] and then performed a platelet aggregation assay using the washed platelet suspensions (2 × 10^8/platelets/mL) followed by the recording of aggregation traces (see Materials and Methods Section). To induce platelet aggregation, 0.03 U/mL of thrombin, a physiological agonist of platelet activation, was used.
Figure 6 Effect of compounds on human platelet activation. Representative platelet aggregation tracings of washed human platelet suspensions pretreated for 30 min at 37 °C with vehicle (DMSO) or compounds at indicated concentrations followed by activation with thrombin (0.03–0.1 U/mL). Panel (A): NCGC00071855. Panel (B–D): NCGC00351170. Panel (E): CD62P exposure was in the presence of NCGC00351170. Data represents mean ± SEM, n = 4 individual experiments; ns = non significant *P < 0.05, ***P < 0.001, ****P < 0.0001.
Whole blood was drawn by venipuncture from healthy adult volunteers (of both gender and race) with informed consent. Approval was obtained from the institutional review boards of Thomas Jefferson University, according to the Declaration of Helsinki. Blood was collected in acidified citrate dextrose as an anticoagulant. Platelet-rich plasma (PRP) and washed platelets were prepared, as previously described.[44] Platelet aggregation was performed using washed platelet suspensions containing 2 × 10^8 platelets/mL using a Chrono-Log Lumi-Aggregometer (Chrono-Log), as described previously.[11] Aggregation traces were recorded by using Aggrolink software (Chrono-Log). Thrombin-induced P-selectin (CD62P) exposure was performed using Accuri C6 flowcytometer (BD Bioscience) as described previously.[11]
Figure S9: Effect of compounds on human platelet activation. Representative platelet aggregation
tracings of washed human platelet suspensions treated with vehicle (DMSO) or indicated
compounds at 10 μM for 30 minutes at 37 °C followed by activation with thrombin (0.03U/mL).

CIB1 and αIIb peptide = target: T3, CIB1 and αIIb peptide (Homo sapiens, UniProt Q99828); assay: Intrinsic tryptophan fluorescence (ITF) assay
T3 sequence (Q99828 1-191): T1 sequence (Q99828 1-191)

[3] = target: T4, GST-CIB1 : F-αIIb peptide (Homo sapiens, UniProt Q99828); assay: FP assay in the presence of glutathione (GSH), thiol reactivity; format: binding; settings: for GSH/CIB1 IC50 ratio: ratio of GSH (+) IC50 to GSH (-) IC50; for GSH Assay Result: thiol reactivity call: No change / Active
T4 construct: made in house; host or cells: BL-21 plus RIL cells (E. coli)
T4 sequence (Q99828 1-191): T1 sequence (Q99828 1-191)

[4] = target: T5, CIB1 and αIIb interaction (GST-CIB1 : F-αIIb peptide) (Homo sapiens, UniProt Q99828); assay: FP assay, 384-well format (screen); format: binding; set-up: 384-well SCREEN Efficacy (%): concentration or dose not given beside the values; settings: F-αIIb peptide; for 384-well SCREEN Confirm?: YES/NO; for IC50: read-out: 384-well SCREEN IC50
T5 construct: made in house; host or cells: BL-21 plus RIL cells (E. coli)
T5 sequence (Q99828 1-191): T1 sequence (Q99828 1-191)

[5] = target: T6, GST-CIB1:F-αIIb interaction (Homo sapiens, UniProt Q99828); assay: Gel-based (in-gel) binding assay; settings: 1 μM GST-CIB1, 400 nM F-αIIb; 60 μM, 1:2, 4-points
T6 construct: made in house; host or cells: BL-21 plus RIL cells (E. coli)
T6 sequence (Q99828 1-191): T1 sequence (Q99828 1-191)

[6] = In vitro ADME: PAMPA permeability
[7] = target: T2, GST-CIB1 : F-scrambled peptide; assay: FP scrambled-peptide counter screen, 384-well format; format: binding; settings: F-scrambled peptide; for 384-well COUNTERSCREEN Confirm?: *: Curve in opposite direction; for IC50: read-out: 384-well COUNTERSCREEN IC50
[8] = In vitro ADME: solubility; format: physicochemical; settings: read-out: Solubility
[9] = target: T7, CIB1-(His)6 : F-αIIb peptide (Homo sapiens, UniProt Q99828); assay: MST competitive binding study
T7 construct: made in house
T7 sequence (Q99828 1-191): T1 sequence (Q99828 1-191)
Method: We sought to resolve this discrepancy by performing a competition binding study similar to the conditions of the FP HTS assay by utilizing the F-αIIb probe.
Figure 4 MST competitive binding assay. We selected 200 nM F-αIIb and a CIB1 concentration of 4 μM and tested both compounds. […] Panel (B) highlights the concentration range in which we observe different activities between the two compounds.
The binding affinity of the compounds to the CIB1-(His)6 protein in the presence of αIIb peptide was evaluated using FITC-labeled αIIb as well. Following manufacturer’s recommendation,[66] we first determined a minimum concentration of F-αIIb by performing a titration of the fluorophore (1 μM, 1:2, 8-points; final concentration range of 7.8 nM to 1 μM) in a 10 μL assay volume. Solutions were placed in standard capillaries and evaluated for the fluorescent signal using the Monolith NT.115 instrument. […] CIB1-(His)6 protein was titrated in a 2-fold dilution series (16-points, final concentration range of 15 nM to 500 μM), at a final volume of 12.5 μL. An equal volume of [2×] […] Solutions were placed in standard capillaries, incubated for approximately 1 h, and evaluated for a fluorescent signal with 50% LED excitation power, 20, 40, or 60% MST power (low, medium, high, respectively), MST on-time of 30 s, and off-time of 5 s.
Compounds were titrated in a 2-fold dilution series (16 points, final concentration range of 6.1 nM to 200 μM) and mixed with an equal volume CIB1-(His)6 protein and F-αIIb peptide (final concentrations of 4 μM and 200 nM, respectively). Solutions were incubated for 1 h at RT, then placed in standard capillaries, and evaluated for fluorescent signal (in triplicate) at the following parameters: 50% LED excitation power, 40% MST power, MST on-time of 30 s, and off-time of 5 s using Monolith NT.115 instrument. Dissociation constant (Kd) values were calculated by fitting the thermophoresis signal at 20 s of the thermograph using the MO Affinity Analysis software (Nanotemper Technologies, Munich, Germany) and confirmed using Graphpad Prism 7.

CIB1-(His)6 = target: T8, CIB1-(His)6 (Homo sapiens, UniProt Q99828); assay: Microscale thermophoresis (MST) protein and small-molecule binding
T8 construct: made in house
T8 sequence (Q99828 1-191): T1 sequence (Q99828 1-191)
Method: Determining a direct measurement of a molecule’s binding interaction with its target is a vital parameter for characterizing a chemical probe. We employed microscale thermophoresis (MST) for this purpose, leveraging its sensitivity and capacity to deliver quantitative data on the binding interaction.[35] […] We began by testing increasing amounts of the compound(s) and incubating them with the fluorescently labeled CIB1-(His)6, followed by the detection of the MST traces on the NT automated instrument (for more details see Materials and Methods Section). […] We were able to rule out compound interference with the histidine tag on CIB1 and/or the fluorophore used for the MST assay by testing the compounds with a fluorescently labeled hexa-histidine peptide (Figure S8B).
The binding affinity of the compounds to the CIB1-(His)6 protein was evaluated using microscale thermophoresis (MST). The recombinant protein was labeled with a fluorophore using Monolith His-tag labeling RED-tris-NTA second Generation kit (Nanotemper Technologies, Munich, Germany) following the manufacturer’s protocol. Compounds were titrated in a 2-fold dilution series (16 points, final concentration range of 6.1 nM to 200 μM) and incubated with the same volume of 50 nM (final concentration; 25 nM RED-tris-NTA) labeled recombinant protein for 30 min at RT (20 μL final assay volume). […] The dissociation constant (Kd) values were calculated by fitting the thermophoresis signal at 20 s of the thermograph using the MO Affinity Analysis software (Nanotemper Technologies, Munich, Germany) and confirmed using GraphPad Prism.

[10] = confirmatory screen, negative sign = inhibitory curve
[11] = confirmatory screen, negative = inhibition
[12] = confirmatory screen, read-out: CONFIRMATORY SCREEN IC50
[13] = FP assay in the presence of glutathione (GSH +), read-out: GSH (+) Assay IC50
[14] = FP assay without glutathione (GSH -), read-out: GSH (-) Assay IC50

Row | Structure (SMILES) | CONFIRMATORY SCREEN Confirm? ([1]; confirmatory screen) | CONFIRMATORY SCREEN Curve Class [1, 10] | CONFIRMATORY SCREEN Efficacy (%) [1, 11] [%] | IC50 [1, 12] [µM] | COUNTERSCREEN Efficacy (%) [2] [%] | COUNTERSCREEN Confirm? [2] | COUNTERSCREEN Curve Class [2] | IC50 [3, 13] [µM] | IC50 [3, 14] [µM] | GSH/CIB1 IC50 ratio [3] | GSH Assay Result [3] | 384-well SCREEN Efficacy (%) [4] [%] | 384-well SCREEN Confirm? [4] | IC50 [4] [µM] | Active in Gel Assay? [5] | Papp [6] [×10⁻⁶ cm/s] | 384-well COUNTERSCREEN Efficacy (%) [7] [%] | 384-well COUNTERSCREEN Confirm? [7] | IC50 [7] [µM] | solubility [8] [µg/mL] | other results
1 | O=C(c1cccs1)c1no[n+]([O-])c1C(=O)c1cccs1 [NCGC00071855-04] | YES | -1.4 | -40 | 5.6 | -36 | YES | -1.4 | 3.1 | 6.3 | 0.5 | No change | 76 | YES | 7.9 | YES | 156 | 50 | YES | 31.6 | 9 (≈ 29.4 µM) | IC50 ([2]; read-out: COUNTERSCREEN IC50): 25.1 µM; Platelet Aggregation Result (washed human platelets; 10 μM compound): Active; IC50 (CIB1 and αIIb peptide): 53.1 µM
2 | COc1ccc(CNC(=O)c2nc(S(=O)(=O)Cc3ccccc3)ncc2Cl)cc1.O=C(O)C(F)(F)F [NCGC00117170-03] | YES | -1.4 | -29 | 12.6 | -18 | YES | 4 | 4.1 | 3.2 | 1.3 | No change | 56 | YES | 7.1 | YES |  | 17 | YES | > 120 |  | Efficacy (%) ([1]; qHTS FP screen hits, Table S2, negative = inhibition): -38%; Curve Class ([1]; qHTS FP screen hits, Table S2, one class per curve where COUNT > 1, negative sign = inhibitory curve): -1.2; IC50 ([1]; qHTS FP screen hits, Table S2, read-out: IC50): 2 µM; ITF IC50 (CIB1 and αIIb peptide): inactive
3 | O=C(c1ccc(-c2ccccc2)cc1)c1no[n+]([O-])c1C(=O)c1ccc(-c2ccccc2)cc1 [NCGC00351154-01] |  |  |  |  |  |  |  |  |  |  |  |  |  |  |  | < 3 |  |  |  | 1 (≈ 2.24 µM) | activity in the qHTS assay ([1]; over the concentration range tested): inactive; EC50 ([9]; 200 nM F-αIIb, 4 μM CIB1-(His)6, n = 3/concentration): 29 µM; difference between the two compounds (EC50) ([9]; NCGC00351154 vs NCGC00351170): 13.8 fold; inhibition at 10 µM (washed human platelets; Homo sapiens, Platelet, single concentration of 10 μM (n = 3), thrombin): 16%; Thrombin Assay 10 µM (%) (washed human platelets; platelet aggregation inhibition at 10 µM): 16%; Kd (CIB1-(His)6; MST, fluorescently labeled CIB1-(His)6 50 nM, read-out: equilibrium dissociation constant (Kd)): 6.7 µM; difference in binding affinity (CIB1-(His)6; NCGC00351154 vs NCGC00351170 Kd): 2.3 fold
